Values quoted from earlier work, collected in patent US20140271573A1, “PHARMACO-CELLULAR THERAPEUTIC METHOD FOR THE TREATMENT OF MUSCULAR DYSTROPHIES” (PONTIFICIA UNIVERSIDAD CATÓLICA DE CHILE, priority 2013, published 2014).

Assays:
MES-13 cells = details: cited from earlier work
dystrophin = details: cited from earlier work
[1] = 12 DMD patients, six-month period

Compound: C=C1CCC2C(C)(CO)C(O)CCC2(C)C1C=CC1=CCOC1=O (stereo not shown) [AP2, 14-deoxy-11,12-didehydroandrographolide]
- reduction of caspase-3, TGF-β1 and PAI-1, relative activity (MES-13 cells; MES-13 cells, AP2 compared with AP1): potent activity than AP1
- phenotypes indicating diabetic nephropathy in MES-13 cells (MES-13 cells; MES-13 cells): reduces
- antioxidant ability in a cellular environment (MES-13 cells): do not have antioxidant ability
- intracellular oxidative states (MES-13 cells; high glucose cultured MES-13 cells): reduced

Compound: gentamicin
- clinical benefits in DMD patients (dystrophin; [1]): no clinical benefits were observed
- patients with dystrophin expression detected (dystrophin; [1]): 6 of the 12
- dystrophin expression in muscle fibers, of normal levels (dystrophin; mdx mice and humans): 20%
